This passage reports Ki, Ratio Ki and Ratio ki results from ChEMBL document CHEMBL1141231, “Discovery and development of a new class of potent, selective, orally active oxytocin receptor antagonists” (J Med Chem, 2005).

In one test the target is T1, Oxytocin receptor (Homo sapiens, UniProt P30559).
T1 sequence (P30559 whole entry): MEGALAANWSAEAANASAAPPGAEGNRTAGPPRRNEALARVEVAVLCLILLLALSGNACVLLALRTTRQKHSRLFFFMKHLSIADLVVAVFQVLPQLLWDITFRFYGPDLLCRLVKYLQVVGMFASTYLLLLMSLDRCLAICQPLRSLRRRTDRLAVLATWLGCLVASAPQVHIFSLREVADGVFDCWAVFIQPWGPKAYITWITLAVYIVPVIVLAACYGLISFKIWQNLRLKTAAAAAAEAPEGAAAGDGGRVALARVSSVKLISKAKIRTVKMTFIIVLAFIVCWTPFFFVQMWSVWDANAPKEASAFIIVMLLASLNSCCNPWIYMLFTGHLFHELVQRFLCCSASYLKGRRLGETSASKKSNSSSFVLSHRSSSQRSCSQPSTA
The test is described as follows: biochemical. In kind it is cell-based, HEK293-EBNA.

The target in the next test is Vasopressin V1a receptor (Homo sapiens, UniProt P37288). The test can be described thus: Displacement of [125I]LVA antagonist from human vasopressin 1a receptor expressed in HEK293-EBNA cells. In kind it is cell-based. In general terms: Loss of bound radioactivity is the signal in a displacement assay; it reports binding, not function.
The species entered for another test is Homo sapiens. The test is described as follows: Selectivity for human vasopressin V1a receptor over human oxytocin receptor.

As usually defined, the Ki is the dissociation constant of the complex between target and ligand, obtained from inhibition or displacement. High values mean weaker binding, low ones tighter binding.

Sequence of Vasopressin V1a receptor (P37288 whole entry): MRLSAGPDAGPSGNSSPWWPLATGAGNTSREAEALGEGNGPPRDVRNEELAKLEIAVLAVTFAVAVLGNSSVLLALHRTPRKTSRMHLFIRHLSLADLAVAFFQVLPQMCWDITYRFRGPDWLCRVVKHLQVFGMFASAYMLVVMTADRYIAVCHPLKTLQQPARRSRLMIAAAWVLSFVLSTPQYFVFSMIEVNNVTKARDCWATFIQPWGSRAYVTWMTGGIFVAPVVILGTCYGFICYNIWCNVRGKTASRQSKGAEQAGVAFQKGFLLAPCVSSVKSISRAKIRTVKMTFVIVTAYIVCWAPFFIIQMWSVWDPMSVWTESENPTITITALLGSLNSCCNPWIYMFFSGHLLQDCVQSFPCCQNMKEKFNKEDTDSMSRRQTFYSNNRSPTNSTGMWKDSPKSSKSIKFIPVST
Description for Oxytocin receptor: Displacement of [125I]OVTA antagonist from human oxytocin receptor expressed in HEK293-EBNA cells

With `COc1ccc(N(CC(=O)Nc2ccc(Cl)cc2C)S(=O)(=O)c2ccccc2)cc1`, the Ki on Oxytocin receptor came out at 800 nM; at Vasopressin V1a receptor, 70 nM.
`CCOc1ccc(S(=O)(=O)N(CC(=O)N2Cc3ccccc3CC2CC(N)=O)c2ccc(C)cc2)cc1` (stereo not given) came in with a Ki on Vasopressin V1a receptor of 1800 nM. Also, the Ratio Ki in the test filed under Homo sapiens was found to be 3.6.
In the case of `CCOc1ccc(S(=O)(=O)N(CC(=O)N2Cc3ccccc3C2C(N)=O)c2ccc(OC)cc2)cc1` (stereo not given), the Ki was 770 nM on Oxytocin receptor and 1600 nM on Vasopressin V1a receptor. In addition, the Ratio Ki in the test filed under Homo sapiens worked out at 2.1.
Regarding `C/C(=N\NC(=O)CN(c1ccccc1)S(=O)(=O)c1ccccc1)c1ccccc1O`, the Ki at Oxytocin receptor is 237 nM; at Vasopressin V1a receptor, more than 10000 nM.
Consider `CCOc1ccc(S(=O)(=O)N(CC(=O)/N=N/c2c(O)[nH]c3ccc([N+](=O)[O-])cc23)c2ccccc2)cc1`, for which the Ki at Oxytocin receptor and on Vasopressin V1a receptor was more than 10000 nM throughout.
In the case of `Cc1ccc(N(CC(=O)/N=N/c2c(O)[nH]c3ccccc23)S(=O)(=O)c2ccc(-c3ccccc3)cc2)cc1`, the results for the Ki on Oxytocin receptor and on Vasopressin V1a receptor were 104 nM and more than 10000 nM, respectively. Moreover, the Ratio Ki in the test filed under Homo sapiens was more than 96.
Turning to `CCOc1ccc(S(=O)(=O)N(CC(=O)N/N=C/c2ccccc2O)c2ccc(C)cc2)cc1`, the Ki at Oxytocin receptor was determined as 60 nM; at Vasopressin V1a receptor, 3210 nM. Moreover, the Ratio Ki in the test filed under Homo sapiens turned out to be 54.
For `CCOc1ccc(S(=O)(=O)N(CC(=O)/N=N/c2c(O)[nH]c3ccccc23)c2ccccc2)cc1` the same measures were 36 nM, more than 10000 nM and more than 275.
For `Cc1ccc(N(CC(=O)/N=N/c2c(O)[nH]c3ccccc23)S(=O)(=O)c2ccc3ccccc3c2)cc1` the same measures were 239 nM, more than 10000 nM and more than 42.
Regarding `Cc1ccc(N(CC(=O)N/N=C2\C(=O)Nc3ccccc32)S(=O)(=O)c2ccc(C#N)cc2)cc1`, the figures for the Ki at Oxytocin receptor and at Vasopressin V1a receptor were 111 nM and 6880 nM, respectively. Also, the Ratio Ki in the test filed under Homo sapiens is 62.
Regarding `CCOc1ccc(S(=O)(=O)N(CCC(=O)/N=N/c2c(O)[nH]c3ccccc23)c2ccc(C)cc2)cc1`, the Ki on Oxytocin receptor and at Vasopressin V1a receptor was more than 10000 nM in each case.
For `CCCCOc1ccc(S(=O)(=O)N(CC(=O)N/N=C2\C(=O)Nc3ccccc32)c2ccc(Cl)cc2)cc1`, the inhibitory constant (Ki) at Oxytocin receptor was determined as 18 nM; on Vasopressin V1a receptor, 3980 nM. For the same compound, in the test filed under Homo sapiens, the Ratio Ki is 230.
Consider `Cc1ccc(N(CC(=O)NN=C2C(=O)Nc3ccccc32)S(=O)(=O)c2cccc3ccccc23)cc1`, for which the Ki was 174 nM on Oxytocin receptor and more than 10000 nM on Vasopressin V1a receptor.
With `CCCOc1ccc(S(=O)(=O)N(CC(=O)N/N=C2\C(=O)Nc3ccccc32)c2ccc(C)cc2)cc1`, the Ki on Oxytocin receptor worked out at 21 nM; at Vasopressin V1a receptor it was 3730 nM. Moreover, the Ratio Ki in the test listed under Homo sapiens amounted to 175.
In the case of `CCOc1ccc(S(=O)(=O)N(CC(=O)N2Cc3ccccc3CC2CC(N)=O)c2ccc(OC)cc2)cc1` (stereo not given), the values for the Ki on Oxytocin receptor and on Vasopressin V1a receptor were 510 nM and 1600 nM, respectively. The Ratio ki in the test filed under Homo sapiens amounted to 3.1.
`COc1ccc(N(CC(=O)Nc2cccc(Cl)c2C)S(=O)(=O)c2ccccc2)cc1`: the Ki on Oxytocin receptor is 100 nM; on Vasopressin V1a receptor it was 300 nM.
For `CCOc1ccc(N(CC(=O)Nc2cccc(Cl)c2C)S(=O)(=O)c2ccccc2)cc1`, the Ki on Oxytocin receptor and on Vasopressin V1a receptor was more than 10000 nM each time.
As to `CCOc1ccc(S(=O)(=O)N(CC(=O)N/N=C(\C)c2ccc(O)cc2O)c2ccc(C)cc2)cc1`, the Ki at Oxytocin receptor and at Vasopressin V1a receptor was more than 10000 nM throughout.
As to `CCOc1ccc(S(=O)(=O)N(CC(=O)N/N=C/c2ccccc2N)c2ccc(C)cc2)cc1`, the Ki on Oxytocin receptor and on Vasopressin V1a receptor was more than 10000 nM in each case.
Turning to `CCOc1ccc(S(=O)(=O)N(CC(=O)N/N=C/c2ncc[nH]2)c2ccc(Cl)cc2)cc1`, the Ki at Oxytocin receptor and on Vasopressin V1a receptor was more than 10000 nM throughout.
`COc1ccc(S(=O)(=O)N(CC(=O)/N=N/c2c(O)[nH]c3ccccc23)c2ccc(Cl)cc2)cc1OC`: the Ki is 18 nM on Oxytocin receptor and 596 nM at Vasopressin V1a receptor. Moreover, the Ratio Ki in the test listed under Homo sapiens stood at 33.
Regarding `CCC(C)(C)c1ccc(S(=O)(=O)N(CC(=O)N/N=C2\C(=O)Nc3ccccc32)c2ccc(Cl)cc2)cc1`, the results for the Ki at Oxytocin receptor and at Vasopressin V1a receptor were 1750 nM and more than 10000 nM, respectively.
`CCCc1ccc(S(=O)(=O)N(CC(=O)N/N=C2\C(=O)Nc3ccccc32)c2ccc(Cl)cc2)cc1`: the Ki at Oxytocin receptor was determined as 36 nM; at Vasopressin V1a receptor it was 2120 nM. Also, the Ratio Ki in the test filed under Homo sapiens amounted to 60.
Consider `Cc1ccc(N(CC(=O)Nc2cccc(Cl)c2C)S(=O)(=O)c2ccccc2)cc1`, for which the figures for the Ki on Oxytocin receptor and at Vasopressin V1a receptor were 93 nM and more than 10000 nM, respectively.
Turning to `CCOc1ccc(S(=O)(=O)N(CC(=O)N/N=C(\C)c2ccc3ccccc3c2O)c2ccc(C)cc2)cc1`, the Ki at Oxytocin receptor and at Vasopressin V1a receptor was more than 10000 nM in each case.
`Cc1ccc(N(CC(=O)N2CCc3ccccc3C2)S(=O)(=O)c2ccccc2)cc1` displayed a Ki at Vasopressin V1a receptor of 325 nM.
In the case of `CN(C)CCCOc1ccc(S(=O)(=O)N(CC(=O)N/N=C2\C(=O)N(CC(N)=O)c3ccccc32)c2ccc(Cl)cc2)cc1`, the Ki on Oxytocin receptor was 322 nM; at Vasopressin V1a receptor, 1100 nM. For the same compound, the Ratio Ki in the test filed under Homo sapiens worked out at 3.
For `CCCOc1ccc(S(=O)(=O)N(CC(=O)N/N=C2\C(=O)Nc3ccccc32)c2ccc(Cl)cc2)cc1` the same measures were 10 nM, 1390 nM and 140.
The matching figures for `CCOc1ccc(S(=O)(=O)N(CC(=O)N/N=C/c2ccccc2O)c2ccc(Cl)cc2)cc1`: 15 nM, 650 nM and 43.
As for `CCOc1ccc(S(=O)(=O)N(CC(=O)N/N=C/c2ccccn2)c2ccc(Cl)cc2)cc1`, the Ki worked out at 2750 nM at Oxytocin receptor and 1860 nM on Vasopressin V1a receptor. The Ratio Ki in the test filed under Homo sapiens came out at 0.67.
Turning to `COc1ccc(-c2ccc(S(=O)(=O)N(CC(=O)/N=N/c3c(O)[nH]c4ccccc34)c3ccc(C)cc3)cc2)cc1`, the Ki on Oxytocin receptor was more than 214 nM; at Vasopressin V1a receptor, more than 10000 nM. The Ratio Ki in the test filed under Homo sapiens was more than 47.
For `CCOc1ccc(S(=O)(=O)N(CC(=O)/N=N/c2c(O)[nH]c3ccc(S(=O)(=O)O)cc23)c2ccc(C)cc2)cc1`, the Ki at Oxytocin receptor and at Vasopressin V1a receptor was more than 10000 nM each time.
Turning to `CCOc1ccc(S(=O)(=O)N(CC(=O)N/N=C/c2ccc(N(CC)CC)cc2O)c2ccc(C)cc2)cc1`, the Ki on Oxytocin receptor and on Vasopressin V1a receptor was more than 10000 nM in each case.
Regarding `CCOc1ccc(S(=O)(=O)N(CC(=O)N/N=C2\C(=O)Nc3ccccc32)c2ccc(Cl)cc2)cc1`, the values for the inhibition constant Ki on Oxytocin receptor and on Vasopressin V1a receptor were 3.9 nM and 471 nM, respectively. For the same compound, the Ratio Ki in the test listed under Homo sapiens stood at 120.
The matching figures for `O=C(CN(c1ccc(Cl)cc1)S(=O)(=O)c1cccs1)N/N=C1\C(=O)Nc2ccccc21`: 37 nM, 510 nM and 14.
Turning to `CCOc1ccc(S(=O)(=O)N(CC(=O)N/N=C/c2ccccc2NC(C)=O)c2ccc(C)cc2)cc1`, the Ki on Oxytocin receptor and on Vasopressin V1a receptor was more than 10000 nM each time.
As to `CCOc1ccc(S(=O)(=O)N(CC(=O)/N=N/c2c(O)[nH]c3ccc(I)cc23)c2ccccc2)cc1`, the Ki at Oxytocin receptor and on Vasopressin V1a receptor was more than 10000 nM each time.
`CN(C)CCCOc1ccc(S(=O)(=O)N(CC(=O)/N=N/c2c(O)[nH]c3c(C(=O)O)cccc23)c2ccc(Cl)cc2)cc1`: the Ki at Oxytocin receptor and at Vasopressin V1a receptor was more than 10000 nM in each case.
For the compound `Cc1ccc(N(CC(=O)N/N=C2\C(=O)Nc3ccccc32)S(=O)(=O)c2cccc3ccccc23)cc1`, in the test listed under Homo sapiens, the Ratio Ki is more than 58.
As to `CCOc1ccc(S(=O)(=O)N(CC(=O)N2Cc3ccccc3CC2C(N)=O)c2ccc(OC)cc2)cc1` (stereo not given), the Ki at Oxytocin receptor was found to be 320 nM; on Vasopressin V1a receptor, 570 nM. Further, the Ratio ki in the test filed under Homo sapiens worked out at 1.8.
Turning to `O=C(CN(c1ccc(Cl)cc1)S(=O)(=O)c1ccccc1)N/N=C1\C(=O)Nc2ccccc21`, the Ki on Oxytocin receptor came out at 8.7 nM; at Vasopressin V1a receptor, 611 nM. Also, the Ratio Ki in the test listed under Homo sapiens was found to be 70.
The compound `COC(=O)c1cccc2c1NC(=O)/C2=N\NC(=O)CN(c1ccc(Cl)cc1)S(=O)(=O)c1ccc(OCCCN(C)C)cc1` had a Ki at Vasopressin V1a receptor of 1290 nM. Further, the Ratio Ki in the test filed under Homo sapiens is 12.
As to `CCOc1ccc(S(=O)(=O)N(CC(=O)N/N=C(\C)c2c(O)ccc3ccccc23)c2ccc(C)cc2)cc1`, the Ki on Oxytocin receptor and on Vasopressin V1a receptor was more than 10000 nM each time.
On to `CCOc1ccc(S(=O)(=O)N(c2ccc(C)cc2)C(CO)C(=O)N/N=C2\C(=O)Nc3ccccc32)cc1` (stereo not given), for which the Ki on Oxytocin receptor was 1380 nM; on Vasopressin V1a receptor, more than 10000 nM.
On to `COc1ccc(S(=O)(=O)N(CC(=O)N/N=C2\C(=O)Nc3ccccc32)c2ccc(C)cc2)cc1`, for which the Ratio Ki in the test filed under Homo sapiens is 22.
With `COc1ccc(S(=O)(=O)N(CC(=O)N/N=C2/C(=O)Nc3ccccc32)c2ccc(C)cc2)cc1`, the Ki on Oxytocin receptor is 20 nM; at Vasopressin V1a receptor, 437 nM.
In the case of `COc1ccc(N(CC(=O)N2CCc3ccccc3C2)S(=O)(=O)c2ccccc2)cc1`, the Ki at Oxytocin receptor is 160 nM; on Vasopressin V1a receptor, 115 nM.
For `C/C(=N\NC(=O)CN(c1cccc(Cl)c1)S(=O)(=O)c1ccccc1)c1ccccc1O`, the inhibition constant (Ki) at Oxytocin receptor came to 4900 nM; at Vasopressin V1a receptor, 600 nM.
Take `CC(C)(C)c1ccc(S(=O)(=O)N(CC(=O)N/N=C2/C(=O)Nc3ccccc32)c2ccc(Cl)cc2)cc1`: the Ki at Oxytocin receptor turned out to be 61 nM; on Vasopressin V1a receptor, 4940 nM. Also, in the test filed under Homo sapiens, the Ratio Ki stood at 80.
Turning to `Cc1c(Cl)cccc1NC(=O)CN(c1ccc(Cl)cc1)S(=O)(=O)c1ccccc1`, the Ki on Oxytocin receptor was 160 nM; at Vasopressin V1a receptor, more than 10000 nM.
The matching figures for `CCOc1ccc(S(=O)(=O)N(c2ccc(C)cc2)C(C)C(=O)N/N=C2\C(=O)Nc3ccccc32)cc1` (stereo not given): 448 nM and more than 10000 nM.
